Experiment [1] relates to maximum electroshock seizure (MES) model. In words: Maximum electroshock seizure (MES) model test. It is filed as in vivo, mice. Conditions: for responders at 50 mg/kg / responders at 100 mg/kg: Mus musculus, po, 1 h, Slc: ddY male mice, 3 per group, electrical stimulation 1 hour after administration, inhibition of hind limb extension, read-out: MES (positive number/tested number) (converted); for responders at 50 mg/kg: 50 mg/kg oral; for responders at 100 mg/kg: 100 mg/kg oral; for anticonvulsant action in maximum electroshock seizure (MES) model test: mice, oral 50 or 100 mg/kg, 1 hour after administration. The text has this:
In order to evaluate the antiepileptic activity of each drug, maximum electroshock seizure (MES) model, subcutaneously pentetrazol-injected model (scPTZ), and amygdala kindling model in rats were used because they show a good clinical prediction.
Test 1: Test with Maximum Electroshock Seizure (MES) Model
Test 1 evaluates the anticonvulsant action of medicaments. Animal model used herein represents the clinical phenotypes of generalized tonic seizure and secondarily generalized tonic-clonic seizure. Test compounds (50 or 100 mg/kg) were orally administered to Slc: ddY male mice (3 mice in each group, body weight 20-30 g). After an hour of administration, their corneas were electrically stimulated (60 Hz, 25 mA, 0.2 second) to induce tonic convulsion (tonic extensor in their hind limbs). […] To the control mice, 0.5% tragacanth solution or 0.5% methylcellulose solution was administered.

The test system of experiment [2] is subcutaneously pentetrazol-injected model (scPTZ). Description: Subcutaneously pentetrazol-injected model (scPTZ) test. It is filed as in vivo, mice. The note with it: pentetrazol 85 mg/kg s.c. after 1 hour; for responders at 100 mg/kg / responders at 50 mg/kg: Mus musculus, po, 1 h, read-out: scPTZ (positive number/tested number) (converted); for responders at 50 mg/kg: 50 mg/kg oral; for anticonvulsant action in subcutaneously pentetrazol-injected model (scPTZ) test: mice, oral 50 or 100 mg/kg. The text has this: In order to evaluate the antiepileptic activity of each drug, maximum electroshock seizure (MES) model, subcutaneously pentetrazol-injected model (scPTZ), and amygdala kindling model in rats were used because they show a good clinical prediction. […] Test with Subcutaneously Pentetrazol-Injected Model (scPTZ) Similar to Test 1, Test 2 evaluates the anticonvulsant action of medicaments. However, unlike Test 1, animal model used herein represents the clinical phenotypes of generalized absence seizure and myoclonic seizure. Test compounds (50 or 100 mg/kg) were orally administered to Slc: ddY male mice (3 mice in each group, body weight 20-30 g). After an hour, pentetrazol (85 mg/kg) was subcutaneously administered. […] To the control mice, 0.5% tragacanth solution or 0.5% methylcellulose solution was administered.

Where [3] appears, read: 100 mg/kg oral, Slc: ddY male mice, 3 per group, observed 30 minutes for clonic convulsion.
[4] abbreviates: Slc: ddY male mice, 3 per group, observed 30 minutes for clonic convulsion.

The structures appear in SMILES notation.

Regarding `CNC(=O)Cc1cc(F)ccc1-c1ccccc1F` [Example 47, 2-(2′,4-difluorobiphenyl-2-yl)-N-methylacetamide], in experiment [1], the responders at 50 mg/kg is 100% and the responders at 100 mg/kg was 100%. In addition, in experiment [2] (setting [3]), the responders at 100 mg/kg is 0%.

For `NC(=O)Cc1cc(F)ccc1-c1cccc(Cl)c1` [Example 48, 2-(3′-chloro-4-fluorobiphenyl-2-yl)acetamide], the responders at 50 mg/kg in experiment [1] and in experiment [2] (setting [4]) was 33.3% each time. Further, the responders at 100 mg/kg in experiment [1] and in experiment [2] (setting [3]) was 100% in each case.

Consider `NC(=O)Cc1ccccc1-c1ccc(Br)cc1` [Example 49, 2-(4′-Bromobiphenyl-2-yl)acetamide], for which the responders at 50 mg/kg in experiment [1] and in experiment [2] (setting [4]) was 0% each time. Further, the responders at 100 mg/kg in experiment [1] and in experiment [2] (setting [3]) was 66.7% throughout.

On to `NC(=O)Cc1ccccc1-c1ccc(C(F)(F)F)cc1` [Example 51], for which, in experiment [1], the responders at 50 mg/kg was 0% and the responders at 100 mg/kg was 100%. Besides, the responders at 100 mg/kg in experiment [2] (setting [3]) is 33.3%.

Turning to `CNC(=O)Cc1ccccc1-c1ccc(Br)cc1` [Example 53, 2-(4′-Bromobiphenyl-2-yl)-N-methylacetamide], the responders at 50 mg/kg in experiment [1] is 66.7%. Moreover, the responders at 100 mg/kg in experiment [1] is 100%; in experiment [2] (setting [3]), 0%.

As to `CNC(=O)Cc1ccccc1-c1ccccc1` [Example 54, 2-(biphenyl-2-yl)-N-methylacetamide], in experiment [1], the responders at 50 mg/kg is 100% and the responders at 100 mg/kg was 100%. The responders at 100 mg/kg in experiment [2] (setting [3]) was 33.3%.

With `CNC(=O)Cc1ccccc1-c1cccc(Br)c1` [Example 55], in experiment [1], the responders at 50 mg/kg is 0% and the responders at 100 mg/kg was 100%. Further, in experiment [2] (setting [3]), the responders at 100 mg/kg is 0%.

`CC(C(N)=O)c1ccccc1-c1ccccc1` (stereo not drawn) [Example 56, 2-(Biphenyl-2-yl)propanamide]: the responders at 50 mg/kg in experiment [1] was 0%; in experiment [2] (setting [4]) it was 100%. Moreover, the responders at 100 mg/kg in experiment [1] is 100%; in experiment [2] (setting [3]), 66.7%.

For the molecule `CNC(=O)C(C)c1ccccc1-c1ccccc1` (stereo not drawn) [Example 57, 2-(biphenyl-2-yl)-N-methyl propanamide], in experiment [1], the responders at 50 mg/kg was 66.7%, the responders at 100 mg/kg was 66.7% and the “anticonvulsant action in maximum electroshock seizure (MES) model test” value is reported as “anticonvulsant action was observed”. The responders at 50 mg/kg in experiment [2] (setting [4]) is 66.7%. Moreover, the responders at 100 mg/kg in experiment [2] (setting [3]) was 66.7%. The “anticonvulsant action in subcutaneously pentetrazol-injected model (scPTZ) test” value in experiment [2] is “anticonvulsant action was observed”.

For `CNC(=O)C(C)c1ccccc1-c1ccccc1F` (stereo not drawn) [Example 58, 2-(2′-fluorobiphenyl-2-yl)-N-methyl propanamide], the responders at 50 mg/kg in experiment [1] and in experiment [2] (setting [4]) was 0% in each case. Besides, the responders at 100 mg/kg in experiment [1] and in experiment [2] (setting [3]) was 66.7% in each case.

`COC(C(N)=O)c1ccccc1-c1ccccc1` (stereo not drawn) [Example 61, 2-(Biphenyl-2-yl)-2-methoxyacetamide]: the responders at 50 mg/kg in experiment [1] and in experiment [2] (setting [4]) was 0% each time. Moreover, the figures for the responders at 100 mg/kg in experiment [1] and in experiment [2] (setting [3]) were 66.7% and 100%, respectively.

Consider `CNC(=O)C(OC)c1ccccc1-c1ccccc1` (stereo not drawn) [Example 62, 2-(biphenyl-2-yl)-2-methoxy-N-methylacetamide], for which, in experiment [1], the responders at 50 mg/kg was 66.7% and the responders at 100 mg/kg is 100%. Also, the responders at 100 mg/kg in experiment [2] (setting [3]) is 33.3%.

For `COC(C(=O)N(C)C)c1ccccc1-c1ccccc1` (stereo not drawn) [Example 63, 2-(biphenyl-2-yl)-2-methoxy-N,N-dimethylacetamide], the responders at 50 mg/kg in experiment [1] is 0%; in experiment [2] (setting [4]), 33.3%. The responders at 100 mg/kg in experiment [1] and in experiment [2] (setting [3]) was 66.7% throughout.

As to `NC(=O)Cc1ccccc1-c1ccc(F)c(Cl)c1` [Example 65], the responders at 100 mg/kg in experiment [1] was 66.7%; in experiment [2] (setting [3]) it was 33.3%.

For `NC(=O)Cc1ccccc1-c1ccc(Cl)c(F)c1` [Example 66], the responders at 100 mg/kg in experiment [1] is 66.7%; in experiment [2] (setting [3]), 33.3%.

In the case of `NC(=O)Cc1ccccc1-c1cc(F)cc(F)c1F` [Example 67, 2-(2′,3′,5′-trifluorobiphenyl-2-yl)acetamide], in experiment [1], the responders at 50 mg/kg is 66.7%, the responders at 100 mg/kg is 66.7% and the “anticonvulsant action in maximum electroshock seizure (MES) model test” value was “anticonvulsant action was observed”. The responders at 50 mg/kg in experiment [2] (setting [4]) is 66.7%. In experiment [2] (setting [3]), the responders at 100 mg/kg is 66.7%. Also, the “anticonvulsant action in subcutaneously pentetrazol-injected model (scPTZ) test” value in experiment [2] is given as “anticonvulsant action was observed”.

Take `NC(=O)Cc1ccccc1-c1ccc(Cl)cc1F` [Example 68, 2-(4′-chloro-2′-fluorobiphenyl-2-yl)acetamide]: the responders at 50 mg/kg in experiment [1] and in experiment [2] (setting [4]) was 0% in each case. The responders at 100 mg/kg in experiment [1] was 100%; in experiment [2] (setting [3]) it was 66.7%.

For `NC(=O)Cc1ccccc1-c1cc(F)c(F)cc1F` [Example 69], the responders at 100 mg/kg was 33.3% in experiment [1] and 66.7% in experiment [2] (setting [3]).

For the molecule `NC(=O)Cc1ccccc1-c1ccc(OC(F)(F)F)c(F)c1` [Example 70, 2-[3′-fluoro-4′-(trifluoromethoxy)biphenyl-2-yl]acetamide], the responders at 50 mg/kg in experiment [1] was 33.3%; in experiment [2] (setting [4]), 66.7%. The figures for the responders at 100 mg/kg in experiment [1] and in experiment [2] (setting [3]) were 100% and 66.7%, respectively.

On to `NC(=O)Cc1ccccc1-c1cc(C(F)(F)F)cc(C(F)(F)F)c1` [Example 72], for which the responders at 100 mg/kg in experiment [1] is 66.7%; in experiment [2] (setting [3]) it was 0%.

With `NC(=O)Cc1ccccc1-c1cc(F)cc(C(F)(F)F)c1` [Example 73, 2-[3′-fluoro-5′-(trifluoromethyl)biphenyl-2-yl]acetamide], the responders at 50 mg/kg in experiment [1] was 33.3%; in experiment [2] (setting [4]), 0%. Moreover, the responders at 100 mg/kg in experiment [1] and in experiment [2] (setting [3]) was 100% each time.

As for `NC(=O)Cc1ccccc1-c1ccc(C(F)(F)F)cc1C(F)(F)F` [Example 74], the responders at 100 mg/kg in experiment [1] is 66.7%; in experiment [2] (setting [3]) it was 33.3%.

Turning to `NC(=O)Cc1ccccc1-c1ccc(Cl)c(C(F)(F)F)c1` [Example 75, 2-[4′-chloro-3′-(trifluoromethyl)biphenyl-2-yl]acetamide], the results for the responders at 50 mg/kg in experiment [1] and in experiment [2] (setting [4]) were 0% and 33.3%, respectively. The responders at 100 mg/kg in experiment [1] was 100%; in experiment [2] (setting [3]), 66.7%.

On to `NC(=O)Cc1ccccc1-c1ccc(OC(F)(F)F)cc1` [Example 76, 2-[4′-(trifluoromethoxy)biphenyl-2-yl]acetamide], for which the responders at 50 mg/kg in experiment [1] is 0%; in experiment [2] (setting [4]) it was 33.3%. The responders at 100 mg/kg in experiment [1] is 100%; in experiment [2] (setting [3]), 66.7%.

As to `CS(=O)(=O)c1ccc(-c2ccccc2CC(N)=O)cc1` [Example 77], the responders at 100 mg/kg in experiment [1] is 0%. For the same molecule, in experiment [2] (setting [3]), the “scPTZ (positive number/tested number)” value is listed as 2/3.

On to `NC(=O)Cc1ccccc1-c1cccc(OC(F)(F)F)c1` [Example 79, 2-[3′-(trifluoromethoxy)biphenyl-2-yl]acetamide], for which the responders at 50 mg/kg in experiment [1] and in experiment [2] (setting [4]) was 33.3% in each case. The responders at 100 mg/kg in experiment [1] and in experiment [2] (setting [3]) was 100% throughout.

As for `Cc1cc(Cl)cc(-c2ccccc2CC(N)=O)c1F` [Example 81], the responders at 100 mg/kg in experiment [1] was 33.3%; in experiment [2] (setting [3]) it was 0%.

Turning to `NC(=O)Cc1ccccc1-c1cc(F)ccc1C(F)(F)F` [Example 82], the responders at 100 mg/kg in experiment [1] was 33.3%; in experiment [2] (setting [3]), 100%.

With `NC(=O)Cc1ccccc1-c1cc(C(F)(F)F)ccc1F` [Example 83, 2-[2′-fluoro-5′-(trifluoromethyl)biphenyl-2-yl]acetamide], the responders at 50 mg/kg in experiment [1] was 0%; in experiment [2] (setting [4]), 33.3%. Further, the responders at 100 mg/kg in experiment [1] and in experiment [2] (setting [3]) was 66.7% throughout.

Consider `NC(=O)Cc1ccccc1-c1ccc(C(F)(F)F)cc1Cl` [Example 84, 2-[2′-chloro-4′-(trifluoromethyl)biphenyl-2-yl]acetamide], for which the responders at 50 mg/kg was 0% in experiment [1] and 33.3% in experiment [2] (setting [4]). For the same molecule, the responders at 100 mg/kg in experiment [1] and in experiment [2] (setting [3]) was 66.7% each time.

Source of the values: patent US20120142771A1, “BIPHENYLACETAMIDE DERIVATIVE” (Dainippon Sumitomo Pharma Co., Ltd., priority 2008, published 2012).
